According to patent US20160207930A1 (LEO PHARMA A/S, priority 2013, published 2016):

What was measured:
[1] = molecular target: T1, NK1 Receptor (Homo sapiens, UniProt P25103); test: NK1 receptor mediated intracellular [Ca2+] mobilization in U251 MG cells using FLIPR; type: cell-based; conditions: antagonism of Substance P (EC80), Fluo-4, read-out: NK1R mediated intracellular [Ca^2+] mobilization IC 50
T1 construct: Measurement of NK1 Receptor Mediated Intracellular [Ca^2+]; Mobilization in U251 MG Cells Using FLIPR; endogenous in cells; host or cells: U251 MG cells
Protocol: Measurement of NK1 Receptor Mediated Intracellular [Ca^2+] Mobilization in U251 MG Cells Using FLIPR
U251 MG cells were seeded into black walled clear-bottom 384-well plates (Greiner Bio-One GmbH, Frickenhausen, Germany) at a density of 15,000 cells/well in 50 μl culture medium and cultured overnight in a 37° C. 5% CO2 incubator. The cells were then loaded with the calcium sensitive dye Fluo-4 (Invitrogen) at 1 μM in buffer, containing 0.04% Pluronic F-127 (Sigma-Aldrich), and 2.5 mM probenecid (Sigma-Aldrich) for 60 min in a humidified atmosphere of 5% CO2. Thereafter, cells were washed three times in washing buffer containing 20 mM HEPES and 2.5 mM probenecid pH 7.3. Serial dilutions of test compounds in assay buffer containing 2% dimethyl sulfoxide (final concentration in the cell plate is 0.5% DMSO) and/or agonist were then automatically pipetted into each test well, and the peak fluorescence intensity was recorded (lex, 488 nm; lem, 540 nm) by the FLIPR instrument (Molecular Devices) for approximately 5 min. To measure antagonist potency, cell plates were first incubated with the test compound and intracellular fluorescence recorded for 5 minutes to check a potential agonist effect of the test compound. Cell plates were quickly removed from the FLIPR instrument and incubated for additional 10 minutes at 37° C. before being moved back to the FLIPR instrument for Substance P (EC80) addition. The response was measured as the peak relative fluorescence change after agonist addition.
Compound relative %-effect was normalized to the maximal response evoked by 100 nM Aprepitant in presence of the EC80 of Substance P and the antagonist potency determined by non-linear regression using GraphPad Prism (version 5) or the four-parameter logistic model in XLfit (IDBS, Guilford, UK) for Microsoft Excel (Microsoft, Redmond, Wash.). The IC50 value is defined as the molar concentration of a test compound that produces a response midway between the fitted top and the fitted bottom. pIC50=−log IC50
Formula is listed as follows:
Fit (% Effect calculated)=(A+((B−A)/(1+((C/X)̂D)))) • A: bottom value • B: top value • C: test compound concentration • X: Relative IC50 • D: Hill slope coefficient
Ref: Sullivan E, Tucker E M, and Dale I L. Measurement of [Ca^2+] using the Fluorometric Imaging Plate Reader (FLIPR). Methods Mol Biol 114:125-133, 1999.
Compounds of the present invention were tested according to example 100.

[2] = Hepatic intrinsic clearance following incubation in human liver microsomes; type: in vitro ADME; conditions: 0.5 μM test compound, NADPH, 0-30 min, scaled to g liver
Protocol: Hepatic Extraction Ratio from Hepatic Intrinsic Clearance Following Incubation in Human Liver Microsomes
The general procedure consists of an automated incubation system and LC-MS/MS analysis with human liver microsomes. Human liver microsomes are thawed rapidly in a waterbath at 37° C. and kept on ice until use. The human liver microsomes are diluted with 50 mM potassium phosphate buffer pH 7.4 to a protein concentration of 0.55 mg/mL. Test compounds and positive controls (Verapamil and Dextromethorphan, positive controls for CYP3A4 for CYP2D6 isoforms, respectively) are dissolved in methanol (or other appropriate solvent, if necessary) in order to obtain a 5 mM solution which is further diluted to the concentration of 50 μM. The stock solutions are prepared immediately before the test.
5 μL of 50 μM test compounds and controls are added to 445 μL-of the 0.55 mg/mL microsomes solution and the incubation mixture are pre-warmed at 37° C. for 5 minutes. The incubation reactions are initiated by adding 50 μL of pre-warmed NADPH regenerating system to the incubation mixtures. 50 μL-aliquots will be taken from the incubation mixtures at: 0, 3, 6, 9, 15 and 30 minutes and the reactions are stopped by adding 100 μL of ACN containing Rolipram, used as generic Internal Standard (IS). Samples are then diluted with 120 μL of Milli-Q water and centrifuged at 3000 rpm for 10 minutes, prior the LC-MS/MS analysis.
The integrated peak areas for test compounds at the selected time points are divided by the respective peak areas of the IS and the percent of parent remaining is calculated by normalizing the peak area ratio of parent to IS at 0 min. Observed rate constant (kobs) for parent degradation is calculated by determining the slope of the line of the graph of the natural log of percentage parent remaining versus time of incubation. From the rate of depletion (min−1) and volume of the incubation (mL), clearance is estimated. This is scaled for the protein in the incubation relative to that in the intact liver, for all species (mL/min/g liver).
Values for the Human in vitro Clint are expressed as mL/min/g liver.
Assuming a liver weight of 25.7 g/kg and a liver blood flow of 20.7 mL/min/kg, the hepatic extraction ratio, Eh, can be derived from the Human in vitro Clint:
E.g. a Human in vitro Clint of 2.4 mL/min/g liver corresponds to a hepatic extraction ratio of 75%.
Some compounds of the present invention were tested according to example 101.

T1 sequence (P25103 whole entry): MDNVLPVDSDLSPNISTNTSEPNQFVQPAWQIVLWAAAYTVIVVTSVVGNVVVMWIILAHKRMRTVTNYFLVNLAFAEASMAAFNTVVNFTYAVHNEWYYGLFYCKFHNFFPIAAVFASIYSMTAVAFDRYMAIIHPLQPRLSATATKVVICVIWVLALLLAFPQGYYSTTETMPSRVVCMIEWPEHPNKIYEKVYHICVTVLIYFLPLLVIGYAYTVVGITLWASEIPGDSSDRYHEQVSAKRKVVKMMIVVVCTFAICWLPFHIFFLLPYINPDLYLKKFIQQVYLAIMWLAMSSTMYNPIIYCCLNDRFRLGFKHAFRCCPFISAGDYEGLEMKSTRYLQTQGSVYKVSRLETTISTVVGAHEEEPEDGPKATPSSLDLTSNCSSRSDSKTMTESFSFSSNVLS

With `Cc1ccc([C@@H]2[C@H]3CCC(=O)N3CCN2C(=O)N(C)Cc2cc(C(F)(F)F)cc(C(F)(F)F)c2)c(C)c1` (racemic) [Compound 3, N-(3,5-bis(trifluoromethyl)benzyl)-1-(2,4-dimethylphenyl)-N-methyl-6-oxohexahydropyrrolo[1,2-a]pyrazine-2(1H)-carboxamide] the IC50 [1] was 0.297 nM and the “Human in vitro Clint” value [2] was greater than 200 mL/min/g.

For `Cc1cc([C@@H](C)N(C)C(=O)N2CCN3C(=O)C(CCO)(CCO)CC3C2c2ccc(C)cc2C)cc(C(F)(F)F)c1` (mixture of isomers) [Compound 8, 1-(2,4-dimethylphenyl)-7,7-bis(2-hydroxyethyl)-N-methyl-N—((R)-1-(3-methyl-5-(trifluoromethyl)phenyl)ethyl)-6-oxo-hexahydropyrrolo[1,2-a]pyrazine-2(1H)-carboxamide], the IC50 [1] was 0.096 nM and the “Human in vitro Clint” value [2] was greater than 200 mL/min/g.

For `Cc1ccc([C@@H]2[C@H]3CC(CCO)(CCO)C(=O)N3CCN2C(=O)N(C)Cc2cc(C(F)(F)F)cc(C(F)(F)F)c2)c(C)c1` (racemic) [Compound 9, N-(3,5-bis(trifluoromethyl)benzyl)-1-(2,4-dimethylphenyl)-7,7-bis(2-hydroxyethyl)-N-methyl-6-oxohexahydropyrrolo[1,2-a]pyrazine-2(1H)-carboxamide], the IC50 [1] was 0.18 nM and the “Human in vitro Clint” value [2] was greater than 200 mL/min/g.

For `Cc1ccc(C2C3CCC(=O)N3CCN2C(=O)N(C)[C@H](C)c2cc(C(F)(F)F)cc(C(F)(F)F)c2)c(C)c1` (single isomer, unassigned) [Compound 1], the IC50 [1] was 0.154 nM and the “Human in vitro Clint” value [2] was greater than 200 mL/min/g.

In the case of `Cc1ccc(C2C3CCC(=O)N3CCN2C(=O)N(C)[C@H](C)c2cc(C(F)(F)F)cc(C(F)(F)F)c2)c(C)c1` (single isomer, unassigned) [Compound 2], the IC50 [1] is reported as 7.79 nM and the “Human in vitro Clint” value [2] is reported as greater than 200 mL/min/g.

With `Cc1cc([C@@H](C)N(C)C(=O)N2CCN3C(=O)CCC3C2c2ccc(C)cc2C)cc(C(F)(F)F)c1` (single isomer, unassigned) [Compound 4] the IC50 [1] was 9.26 nM and the “Human in vitro Clint” value [2] was greater than 200 mL/min/g.

With `Cc1cc([C@@H](C)N(C)C(=O)N2CCN3C(=O)CCC3C2c2ccc(C)cc2C)cc(C(F)(F)F)c1` (single isomer, unassigned) [Compound 5] the IC50 [1] was 0.437 nM and the “Human in vitro Clint” value [2] was greater than 200 mL/min/g.

In the case of `Cc1ccc(C2C3CC(CCO)(CCO)C(=O)N3CCN2C(=O)N(C)[C@H](C)c2cc(C(F)(F)F)cc(C(F)(F)F)c2)c(C)c1` (single isomer, unassigned) [Compound 6], the IC50 [1] is reported as 1.59 nM and the “Human in vitro Clint” value [2] is reported as greater than 200 mL/min/g.

In the case of `Cc1ccc(C2C3CC(CCO)(CCO)C(=O)N3CCN2C(=O)N(C)[C@H](C)c2cc(C(F)(F)F)cc(C(F)(F)F)c2)c(C)c1` (single isomer, unassigned) [Compound 7], the IC50 [1] is reported as 0.08 nM and the “Human in vitro Clint” value [2] is reported as greater than 200 mL/min/g.

In the case of `Cc1cc(F)ccc1C1C2CC(CCO)(CCO)C(=O)N2CCN1C(=O)N(C)[C@H](C)c1cc(Cl)cc(C(F)(F)F)c1` (single isomer, unassigned) [Compound 10], the IC50 [1] is reported as 0.063 nM and the “Human in vitro Clint” value [2] is reported as greater than 200 mL/min/g.

In the case of `Cc1cc(F)ccc1C1C2CC(CCO)(CCO)C(=O)N2CCN1C(=O)N(C)[C@H](C)c1cc(Cl)cc(C(F)(F)F)c1` (single isomer, unassigned) [Compound 11], the IC50 [1] is reported as 0.613 nM and the “Human in vitro Clint” value [2] is reported as greater than 200 mL/min/g.

With `Cc1cc([C@@H](C)N(C)C(=O)N2CCN3C(=O)C(CCO)(CCO)CC3C2c2ccc(F)cc2C)cc(C(F)(F)F)c1` (single isomer, unassigned) [Compound 12] the IC50 [1] was 0.622 nM and the “Human in vitro Clint” value [2] was greater than 200 mL/min/g.

In the case of `Cc1cc([C@@H](C)N(C)C(=O)N2CCN3C(=O)C(CCO)(CCO)CC3C2c2ccc(F)cc2C)cc(C(F)(F)F)c1` (single isomer, unassigned) [Compound 13], the IC50 [1] is reported as 0.034 nM and the “Human in vitro Clint” value [2] is reported as greater than 200 mL/min/g.

In the case of `Cc1cc(F)ccc1C1C2CC(CCO)(CCO)C(=O)N2CCN1C(=O)N(C)[C@H](C)c1cc(C(F)(F)F)cc(C(F)(F)F)c1` (single isomer, unassigned) [Compound 14], the IC50 [1] is reported as 0.094 nM and the “Human in vitro Clint” value [2] is reported as greater than 200 mL/min/g.

With `Cc1cc(F)ccc1C1C2CC(CCO)(CCO)C(=O)N2CCN1C(=O)N(C)[C@H](C)c1cc(C(F)(F)F)cc(C(F)(F)F)c1` (single isomer, unassigned) [Compound 15] the IC50 [1] was 2.54 nM and the “Human in vitro Clint” value [2] was 104 mL/min/g.

For `COc1ccc(C2C3CCC(=O)N3CCN2C(=O)N(C)[C@H](C)c2cc(C(F)(F)F)cc(C(F)(F)F)c2)c(C)c1` (single isomer, unassigned) [Compound 18], the IC50 [1] was 1.15 nM and the “Human in vitro Clint” value [2] was greater than 200 mL/min/g.

For `COc1ccc(C2C3CCC(=O)N3CCN2C(=O)N(C)[C@H](C)c2cc(C(F)(F)F)cc(C(F)(F)F)c2)c(C)c1` (single isomer, unassigned) [Compound 19], the IC50 [1] was 38.8 nM and the “Human in vitro Clint” value [2] was greater than 200 mL/min/g.

Work on `C[C@H](c1cc(C(F)(F)F)cc(C(F)(F)F)c1)N(C)C(=O)N1CCN2C(=O)CC[C@H]2[C@@H]1c1ccccc1Cl` (single isomer, unassigned) [Compound 72] yielded an IC50 [1] of 0.02 nM.

With `C[C@H](c1cc(C(F)(F)F)cc(C(F)(F)F)c1)N(C)C(=O)N1CCN2C(=O)CC[C@H]2[C@@H]1c1ccccc1Cl` (single isomer, unassigned) [Compound 73] the IC50 [1] was 1.38 nM.

`C[C@H](c1cc(C(F)(F)F)cc(C(F)(F)F)c1)N(C)C(=O)N1CCN2C(=O)CC[C@H]2[C@@H]1c1ccc(F)cc1Cl` (single isomer, unassigned) [Compound 83] gave an IC50 [1] of 0.06 nM.

For `C[C@H](c1cc(C(F)(F)F)cc(C(F)(F)F)c1)N(C)C(=O)N1CCN2C(=O)CC[C@H]2[C@@H]1c1ccc(F)cc1Cl` (single isomer, unassigned) [Compound 84], the IC50 [1] was 1.15 nM.

In the case of `Cc1cccnc1[C@H]1[C@@H]2CCC(=O)N2CCN1C(=O)N(C)[C@H](C)c1cc(C(F)(F)F)cc(C(F)(F)F)c1` [Compound 43, (1R,8aS)—N—((R)-1-(3,5-bis(trifluoromethyl)phenyl)ethyl)-N-methyl-1-(3-methylpyridin-2-yl)-6-oxo-hexahydropyrrolo[1,2-a]pyrazine-2(1H)-carboxamide], the IC50 [1] is reported as 2.97 nM.

With `Cc1ncccc1[C@H]1[C@@H]2CCC(=O)N2CCN1C(=O)N(C)[C@H](C)c1cc(C(F)(F)F)cc(C(F)(F)F)c1` [Compound 47, (1S,8aS)—N—((R)-1-(3,5-bis(trifluoromethyl)phenyl)ethyl)-N-methyl-1-(2-methylpyridin-3-yl)-6-oxo-hexahydropyrrolo[1,2-a]pyrazine-2(1H)-carboxamide] the IC50 [1] was 0.893 nM.

Work on `Cc1n[nH]cc1[C@H]1[C@@H]2CCC(=O)N2CCN1C(=O)N(C)[C@H](C)c1cc(C(F)(F)F)cc(C(F)(F)F)c1` [Compound 60, (1S,8aS)—N—((R)-1-(3,5-bis(trifluoromethyl)phenyl)ethyl)-N-methyl-1-(3-methyl-1H-pyrazol-4-yl)-6-oxohexahydropyrrolo[1,2-a]pyrazine-2(1H)-carboxamide] yielded an IC50 [1] of 31.8 nM.
